Results reported in ChEMBL document CHEMBL5465560, “Selectivity Literature for EUbOPEN Chemogenomic Library” (2024).

Columns and labels:
[1] = target: T1, Mitogen-activated protein kinase kinase kinase 5 (Homo sapiens) (UniProt Q99683); assay: Selectivity interaction (Kinase panel (KiNativ target engagement assay in Jurkat cells)) EUB0001635a MAP3K5; type: cell-based; details: Selectivity number of off-targets 0.0, Selectivity number of targets 233.0, Source Knowledge https://www.sciencedirect.com/science/article/pii/S2451945619300674?via%3Dihub, at 1 µM
T1 sequence (whole entry): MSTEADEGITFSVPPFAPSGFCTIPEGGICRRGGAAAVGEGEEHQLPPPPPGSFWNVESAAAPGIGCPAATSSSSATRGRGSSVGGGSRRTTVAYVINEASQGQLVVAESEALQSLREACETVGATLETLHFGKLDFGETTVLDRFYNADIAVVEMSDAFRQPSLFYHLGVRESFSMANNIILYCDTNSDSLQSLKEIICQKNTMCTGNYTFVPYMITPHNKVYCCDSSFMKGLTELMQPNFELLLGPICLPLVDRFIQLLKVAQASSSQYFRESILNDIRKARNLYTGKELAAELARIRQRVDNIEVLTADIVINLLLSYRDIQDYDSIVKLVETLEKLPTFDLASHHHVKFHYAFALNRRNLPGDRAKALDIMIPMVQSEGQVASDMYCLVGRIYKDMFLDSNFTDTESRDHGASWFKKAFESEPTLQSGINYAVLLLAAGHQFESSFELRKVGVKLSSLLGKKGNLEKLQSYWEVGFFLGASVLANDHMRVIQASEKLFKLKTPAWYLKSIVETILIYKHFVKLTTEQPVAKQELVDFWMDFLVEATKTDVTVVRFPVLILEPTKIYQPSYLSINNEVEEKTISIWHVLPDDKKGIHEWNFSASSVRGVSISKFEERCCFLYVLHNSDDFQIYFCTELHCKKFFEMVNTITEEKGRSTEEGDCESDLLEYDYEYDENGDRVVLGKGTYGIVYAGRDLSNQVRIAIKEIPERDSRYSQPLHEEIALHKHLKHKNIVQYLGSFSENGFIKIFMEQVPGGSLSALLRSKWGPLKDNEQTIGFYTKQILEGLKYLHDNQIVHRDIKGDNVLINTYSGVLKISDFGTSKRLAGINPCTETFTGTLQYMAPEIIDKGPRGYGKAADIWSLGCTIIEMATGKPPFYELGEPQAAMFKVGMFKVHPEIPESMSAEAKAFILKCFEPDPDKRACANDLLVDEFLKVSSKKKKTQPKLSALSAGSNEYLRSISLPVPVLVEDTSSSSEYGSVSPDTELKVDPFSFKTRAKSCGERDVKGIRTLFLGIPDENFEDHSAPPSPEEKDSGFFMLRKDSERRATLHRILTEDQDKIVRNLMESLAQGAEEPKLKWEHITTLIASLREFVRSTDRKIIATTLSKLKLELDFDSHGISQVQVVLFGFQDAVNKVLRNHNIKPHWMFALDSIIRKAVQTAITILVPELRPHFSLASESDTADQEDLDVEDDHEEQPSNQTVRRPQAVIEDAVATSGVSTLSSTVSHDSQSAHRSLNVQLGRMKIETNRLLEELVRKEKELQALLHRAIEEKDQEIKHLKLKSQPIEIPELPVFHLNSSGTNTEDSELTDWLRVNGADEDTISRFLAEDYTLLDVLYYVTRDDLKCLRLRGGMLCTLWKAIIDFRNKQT

[2] = target: T2, Inhibitor of nuclear factor kappa-B kinase subunit epsilon (Homo sapiens) (UniProt Q14164); details: at 1 µM
T2 sequence (whole entry): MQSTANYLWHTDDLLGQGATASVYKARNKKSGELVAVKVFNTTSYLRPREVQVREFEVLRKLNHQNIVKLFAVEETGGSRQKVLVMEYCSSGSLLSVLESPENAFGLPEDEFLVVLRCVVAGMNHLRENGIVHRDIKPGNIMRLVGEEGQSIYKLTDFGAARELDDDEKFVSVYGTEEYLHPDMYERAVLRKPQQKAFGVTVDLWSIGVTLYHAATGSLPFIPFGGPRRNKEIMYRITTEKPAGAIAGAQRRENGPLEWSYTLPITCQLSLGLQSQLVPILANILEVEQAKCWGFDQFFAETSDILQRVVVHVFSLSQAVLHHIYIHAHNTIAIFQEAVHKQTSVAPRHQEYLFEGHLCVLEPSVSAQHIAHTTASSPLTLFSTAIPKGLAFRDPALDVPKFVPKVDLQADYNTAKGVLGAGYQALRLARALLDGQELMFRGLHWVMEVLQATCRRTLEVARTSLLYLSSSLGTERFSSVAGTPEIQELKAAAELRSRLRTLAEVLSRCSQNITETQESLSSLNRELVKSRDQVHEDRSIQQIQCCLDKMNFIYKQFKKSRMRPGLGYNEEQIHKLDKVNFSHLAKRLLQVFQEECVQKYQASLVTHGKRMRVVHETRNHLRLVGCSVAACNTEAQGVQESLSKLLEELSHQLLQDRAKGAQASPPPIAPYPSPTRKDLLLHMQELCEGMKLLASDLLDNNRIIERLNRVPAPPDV

Row | SMILES | % of engagement [1] [%] | % of inhibition [2] [%]
1 | C=CC(=O)Nc1ccc(C(=O)Nc2[nH]nc3c2CN(C(=O)N[C@H](CN(C)C)c2ccccc2)C3(C)C)cc1 | 3.6 | –
2 | Cc1ccc(-c2ccc3c(ccc4sc5c(c43)NC[C@@H](C)NC5=O)n2)cn1 | – | 11
